Like-named read-outs stand apart in the source and are kept apart here.
Experiments:
[1] = tested on: Yorkshire Swine skin (injection site); conditions: pig, in vivo
[2] = Crossover PK study: plasma sumatriptan by LC/MS/MS after ID/junctional vs SC administration (Tmax, Cmax, AUC, relative F); format: in vivo, Yucatan miniswine; conditions: for rel. F 10 min / rel. F Total: compared to SC; for Cmax / AUC: minipig, plasma; for AUC: read-out: AUC 10 mm. (converted)
[3] = Yucatan miniswine, 1 × 1.5 mm × 30 g, 0 mg/ml
[4] = Yucatan miniswine, 1 × 2 mm × 30 g, 30 mg/ml
[5] = Yucatan miniswine, 1 × 3 mm × 30 g, 30 mg/ml
[6] = Yucatan miniswine, 3 × 2 mm × 34 g, 30 mg/ml
[7] = Yucatan miniswine, sc, 12 mg/ml
[8] = Yucatan, 3 × 3 mm × 34 g, 12 mg/ml

Erythema Mean ([1]; 4 h): 0.1
Erythema Median ([1]; 4 h): 0.2
Edema Median ([1]; 6 h): 0
Edema Median ([1]; 8 h): 0
Edema Mean ([1]; 24 h): 0.0
Edema Median ([1]; 24 h): 0
Erythema Mean ([1]; 24 h): 0.0
Erythema Median ([1]; 24 h): 0.0
AUC total ([2]; 1 × 1.5 mm × 30 g, 0 mg/ml): 27696.167 ng·min/mL
rel. F 10 min ([2]; 1 × 1.5 mm × 30 g, 0 mg/ml): 186.777%
rel. F Total ([2]; 1 × 1.5 mm × 30 g, 0 mg/ml): 117.806%
AUC total ([2]; 1 × 2 mm × 30 g, 30 mg/ml): 23548.167 ng·min/mL
rel. F 10 min ([2]; 1 × 2 mm × 30 g, 30 mg/ml): 165.993%
rel. F Total ([2]; 1 × 2 mm × 30 g, 30 mg/ml): 100.162%
AUC total ([2]; 1 × 3 mm × 30 g, 30 mg/ml): 27335.167 ng·min/mL
rel. F 10 min ([2]; 1 × 3 mm × 30 g, 30 mg/ml): 190.490%
rel. F Total ([2]; 1 × 3 mm × 30 g, 30 mg/ml): 116.270%
AUC total ([2]; 3 × 2 mm × 34 g, 30 mg/ml): 30006.000 ng·min/mL
rel. F 10 min ([2]; 3 × 2 mm × 34 g, 30 mg/ml): 153.272%
rel. F Total ([2]; 3 × 2 mm × 34 g, 30 mg/ml): 127.631%
AUC total ([2]; 3 × 3 mm × 34 g, 12 mg/ml): 25642.833 ng·min/mL
rel. F 10 min ([2]; 3 × 3 mm × 34 g, 12 mg/ml): 116.434%
rel. F Total ([2]; 3 × 3 mm × 34 g, 12 mg/ml): 109.072%
AUC total ([2]; 3 × 3 mm × 34 g, 30 mg/ml): 25947.667 ng·min/mL
rel. F 10 min ([2]; 3 × 3 mm × 34 g, 30 mg/ml): 117.806%
rel. F Total ([2]; 3 × 3 mm × 34 g, 30 mg/ml): 110.369%
AUC total ([2]; IV, 12 mg/ml): 16626.000 ng·min/mL
rel. F 10 min ([2]; IV, 12 mg/ml): 131.820%
rel. F Total ([2]; IV, 12 mg/ml): 70.719%
Maximum concentration levels at early time points ([2]; Intradermal and/or junctional administration vs SC): elevated
AUC total ([2]; SC, 12 mg/ml): 23510.000 ng·min/mL
rel. F 10 min ([2]; SC, 12 mg/ml): 100.000%
rel. F Total ([2]; SC, 12 mg/ml): 100.000%
Cmax [2, 3]: 824 ng/mL
AUC [2, 3]: 84.7 ng·h/mL
Cmax [2, 4]: 849 ng/mL
AUC [2, 4]: 75.2 ng·h/mL
Cmax [2, 5]: 837 ng/mL
AUC [2, 5]: 86.4 ng·h/mL
Cmax [2, 6]: 726 ng/mL
AUC [2, 6]: 69.5 ng·h/mL
Cmax ([2]; Yucatan miniswine, 3 × 3 mm × 34 g, 30 mg/ml): 649 ng/mL
Cmax [2, 7]: 527 ng/mL
AUC [2, 7]: 45.3 ng·h/mL
Cmax [2, 8]: 706 ng/mL
AUC [2, 8]: 52.8 ng·h/mL
AUC ([2]; Yucatan, 3 × 3 mm × 34 g, 30 mg/ml): 53.4 ng·h/mL
Cmax ([2]; Yucatan, iv, 12 mg/ml): 661 ng/mL
AUC ([2]; Yucatan, iv, 12 mg/ml): 59.8 ng·h/mL
Structure (SMILES): CNS(=O)(=O)Cc1ccc2[nH]cc(CCN(C)C)c2c1 [sumatriptan, 3-[2-(dimethylamino)ethyl]-N-methyl-indole-5-methanesulfonamide]
